Structures are written as SMILES. Bounds are passed on as bounds.

The values below come from US10407382B2, “EP4 agonists as therapeutic compounds” (ALLERGAN, INC., priority 2014, dated 2019).

Assay [1] concerns the target T1, EP4 (Homo sapiens, UniProt P35408). The experiment in a line: Radioligand binding, EP4. Also on record: expressed in transfected cells; membrane fraction. As to conditions: [3H]PGE2 competition. As for the experimental part:
(§1) Data from running binding and activity studies on the compounds of the invention were carried out as described in U.S. Pat. No. 7,427,685, the contents of which are incorporated herein by reference.
(§2) Cells Stably Expressing EP1, EP2, EP4, and FP Receptors
(§3) HEK-293 cells stably expressing the human or feline FP receptor, or EP1, EP2, or EP4 receptors were washed with TME buffer, scraped from the bottom of the flasks, and homogenized for 30 sec using a Brinkman PT 10/35 polytron. TME buffer was added to achieve a final 40 ml volume in the centrifuge tubes (the composition of TME is 100 mM TRIS base, 20 mM MgCl2, […]; ION HCl is added to achieve a pH of 7.4).
(§4) The cell homogenate was centrifuged at 19000 rpm for 20 min at 4° C. using a Beckman Ti-60 rotor. The resultant pellet was resuspended in TME buffer to give a final 1 mg/ml protein concentration, as determined by Biorad assay. Radioligand binding competition assays vs. [^3H-]17-phenyl PGF2α (5 nM) were performed in a 100 μl volume for 60 min. Binding reactions were started by adding plasma membrane fraction. The reaction was terminated by the addition of 4 ml ice-cold TRIS-HCl buffer and rapid filtration through glass fiber GF/B filters using a Brandel cell harvester. The filters were washed 3 times with ice-cold buffer and oven dried for one hour.
(§5) [^3H-] PGE2 (specific activity 180 Ci mmol) was used as the radio ligand for EP receptors. [^3H] 17-phenyl PGF2α was employed for FP receptor binding studies. Binding studies employing EP1, EP2, EP4 and FP receptors were performed in duplicate in at least three separate experiments. A 200 μl assay volume was used. Incubations were for 60 min at 25° C. and were terminated by the addition of 4 ml of ice-cold 50 mM TRIS-HCl, followed by rapid filtration through Whatman GF/B filters and three additional 4 ml washes in a cell harvester (Brandel). Competition studies were performed using a final concentration of 5 nM [^3H]-PGE2, or 5 nM [^3H] 17-phenyl PGF2α and non-specific binding determined with 10^−5M of unlabeled PGE2, or 17-phenyl PGF2α, according to receptor subtype studied.

Assay [2] has as its target T2, EP2 (Homo sapiens, UniProt P43116). The experiment in a line: cAMP assay, EP2. The class given is cell-based. Also on record: expressed in transfected cells; host or cells: HEK-EBNA cells. The following applies: HEK-EBNA cells expressing EP2. As for the experimental part: (§6) A 384-well drug plate was prepared to contain 6 test compounds, PGE2 and cAMP in 16 serial dilutions in triplicate, using a Biomek station. HEK-EBNA cells expressing a target PG receptor subtype (EP2 or EP4) were suspended in a stimulation buffer (HBSS, 0.1% BSA, 0.5 mM IBMX and 5 mM HEPES, pH 7.4) in a density of 10^4 cells/5 μL. The reaction was initiated by mixing 5 μL drug dilutions with 5 μL of HEK-EBNA cells in a well, carried out for 30 min at room temperature, and followed by the addition of 5 μL anti-cAMP acceptor beads in the control buffer with Tween-20 (25 mM NaCl, 0.03% Tween-20, 5 mM HEPES, pH 7.4). After 30 min in the dark at room temperature, the mixtures were incubated with 15 μL biotinylated-cAMP/strepavidin donor beads in Lysis/Detection buffer (0.1% BSA, 0.3% Tween-20 and 5 mM HEPES, pH 7.4) for 45 min at the room temperature. Fluorescence changes were read using a Fusion-alpha HT microplate reader.
On the technique in general: cAMP levels reflect the balance of adenylyl cyclase and phosphodiesterase activity.

Assay [3] addresses T1, EP4. The experiment in a line: cAMP assay, EP4. The arrangement: expressed in transfected cells; host or cells: HEK-EBNA cells. In kind it is cell-based. As to conditions: HEK-EBNA cells expressing EP4. As for the experimental part: as §6
In assay [4] the target is T2, EP2. The experiment in a line: Ki competition binding, EP2. Also on record: expressed in transfected cells. The following applies: [3H]PGE2 competition; NA = no activity. As for the experimental part:
as §1
Competition binding experiments were performed in a medium containing Hank's balanced salt solution, Hepes 20 mM, pH 7.3, membranes (˜60 μg protein) or 2×10^5 cells from HEK 293 cells stably expressing human EP2 receptors, [^3H]PGE2 (10 nM) and various concentrations of test compounds in a total volume of 300 μl. Reaction mixtures were incubated at 23° C. for 60 min, and were filtered over Whatman GF IB filters under vacuum. Filters were washed three times with 5 ml ice-cold buffer containing 50 mM Tris/HCl (PH 7.3). Non-specific binding was estimated in the presence of excess unlabeled PGE2 (10 μM). Binding data fitted to the binding model for a single class of binding sites, using nonlinear regression analysis. IC50 values thus obtained were converted to Ki using the equation of Ki=(IC50/(1+[L]/KD) where [L] represents PGE2 concentration (10 nM) and KD the dissociation constant for [^3H]PGE2 at human EP2 receptors (40 nM).
as §2, §3, §4, §5

T2 sequence (P43116 whole entry): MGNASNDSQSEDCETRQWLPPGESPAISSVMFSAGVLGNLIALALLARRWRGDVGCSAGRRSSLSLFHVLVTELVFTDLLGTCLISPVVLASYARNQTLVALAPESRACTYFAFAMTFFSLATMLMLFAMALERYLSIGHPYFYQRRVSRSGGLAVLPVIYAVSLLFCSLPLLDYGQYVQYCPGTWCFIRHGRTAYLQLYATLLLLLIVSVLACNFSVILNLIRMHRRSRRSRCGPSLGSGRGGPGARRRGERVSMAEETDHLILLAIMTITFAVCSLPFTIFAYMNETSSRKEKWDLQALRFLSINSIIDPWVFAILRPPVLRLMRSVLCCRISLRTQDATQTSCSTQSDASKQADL
T1 sequence (P35408 whole entry): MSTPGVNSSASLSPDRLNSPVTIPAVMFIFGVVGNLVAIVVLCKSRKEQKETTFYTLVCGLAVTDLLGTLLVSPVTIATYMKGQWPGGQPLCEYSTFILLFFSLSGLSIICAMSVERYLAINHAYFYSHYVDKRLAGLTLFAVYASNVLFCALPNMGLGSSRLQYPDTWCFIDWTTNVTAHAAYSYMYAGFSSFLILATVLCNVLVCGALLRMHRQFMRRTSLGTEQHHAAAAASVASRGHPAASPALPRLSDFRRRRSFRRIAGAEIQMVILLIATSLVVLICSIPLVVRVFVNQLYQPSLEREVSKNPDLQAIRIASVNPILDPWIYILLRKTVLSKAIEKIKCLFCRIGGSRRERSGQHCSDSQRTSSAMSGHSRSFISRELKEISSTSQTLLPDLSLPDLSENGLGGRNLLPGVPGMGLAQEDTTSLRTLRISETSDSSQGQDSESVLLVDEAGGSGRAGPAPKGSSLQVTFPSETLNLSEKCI

Consider `O=C(O)c1ccc(CNC(=O)C2CCCC2Cc2cccc(C(F)(F)F)c2)cc1` (single isomer, unassigned) [Example 5, 4-((2-(3-(Trifluoromethyl)benzyl)cyclopentanecarboxamido)methyl)benzoic Acid], for which the figures for the Ki at EP4 [1] and at EP2 [4] were 8 nM and 154 nM, respectively. The EC50 (usually the concentration giving half of the maximal effect) on EP2 [2] was 13 nM; at EP4 [3], more than 10000 nM.

With `COc1cc(CC2CCCCC2C(=O)NCc2ccc(C(=O)O)cc2)cc(OC)c1` (single isomer, unassigned) [Example 9, 4-((2-(3,5-Dimethoxybenzyl)cyclohexanecarboxamido)methyl)benzoic Acid], the Ki – broadly, a measure of affinity in units of concentration, obtained from inhibition or displacement – at EP4 [1] was found to be 2 nM; on EP2 [4], 2150 nM. Also, the EC50 was 389 nM on EP2 [2] and more than 10000 nM at EP4 [3].

Regarding `COc1cc(CC2CCCCC2C(=O)NCc2ccc(C(=O)O)cc2)cc(OC)c1` (single isomer, unassigned) [Example 10, 4-((2-(3,5-Dimethoxybenzyl)cyclohexanecarboxamido)methyl)benzoic Acid], the Ki on EP4 [1] worked out at 2 nM; on EP2 [4] it was 908 nM. For the same compound, the EC50 came to 25 nM on EP2 [2] and 0.2 nM on EP4 [3].

In the case of `COc1cc(CC2CCCCCC2C(=O)NCc2ccc(C(=O)O)cc2)cc(OC)c1` (single isomer, unassigned) [Example 12, 4-((2-(3,5-Dimethoxybenzyl)cycloheptanecarboxamido)methyl)benzoic Acid], the results for the Ki at EP4 [1] and at EP2 [4] were 9 nM and more than 10000 nM, respectively. Moreover, the results for the EC50 on EP2 [2] and at EP4 [3] were 1310 nM and more than 10000 nM, respectively.

Consider `COc1cc(CC2CCCCCC2C(=O)NCc2ccc(C(=O)O)cc2)cc(OC)c1` (single isomer, unassigned) [Example 13, 4-((2-(3,5-Dimethoxybenzyl)cycloheptanecarboxamido)methyl)benzoic Acid], for which the Ki at EP4 [1] came to 2 nM; at EP2 [4], 6300 nM. Further, the EC50 turned out to be 573 nM on EP2 [2] and 0.2 nM on EP4 [3].

Turning to `COc1ccc(CC2CCCCC2C(=O)NCc2ccc(C(=O)O)cc2)cc1` (single isomer, unassigned) [Example 35, 4-((2-(4-Methoxybenzyl)cyclohexanecarboxamido)methyl)benzoic Acid], the Ki at EP4 [1] was 86 nM; at EP2 [4], more than 10000 nM. On EP4 [3], this compound had an EC50 of more than 10000 nM.

With `COc1cc(CC2=C(C(=O)NCc3ccc(C(=O)O)cc3)CCC2)cc(OC)c1` [Example 3, 4-((2-(3,5-Dimethoxybenzyl)cyclopent-1-enecarboxamido)methyl)benzoic Acid], the Ki on EP4 [1] was 5 nM; on EP2 [4] it was 1120 nM. The values for the EC50 at EP2 [2] and at EP4 [3] were 33 nM and 1 nM, respectively.

On to `O=C(NCc1ccc(C(=O)O)cc1)C1=C(Cc2cccc(C(F)(F)F)c2)CCC1` [Example 4, 4-((2-(3-(Trifluoromethyl)benzyl)cyclopent-1-enecarboxamido)methyl)benzoic Acid], for which the Ki on EP4 [1] was determined as 7 nM; on EP2 [4] it was 109 nM. In addition, the results for the EC50 at EP2 [2] and on EP4 [3] were 2 nM and more than 10000 nM, respectively.

In the case of `COc1cc(CC2=C(C(=O)NCc3ccc(C(=O)O)cc3)CCCC2)cc(OC)c1` [Example 8, 4-((2-(3,5-Dimethoxybenzyl)cyclohex-1-enecarboxamido)methyl)benzoic Acid], the Ki at EP4 [1] was found to be 1 nM; on EP2 [4], 177 nM. The values for the EC50 on EP2 [2] and at EP4 [3] were 2 nM and 0.2 nM, respectively.

In the case of `COc1cccc(CC2=C(C(=O)NCc3ccc(C(=O)O)cc3)CCCC2)c1OC` [Example 14, 4-((2-(2,3-Dimethoxybenzyl)cyclohex-1-enecarboxamido)methyl)benzoic Acid], the Ki stood at 45 nM on EP4 [1] and 1190 nM on EP2 [4]. On EP4 [3], this compound came in with an EC50 of more than 10000 nM.

Consider `COc1ccc(OC)c(CC2=C(C(=O)NCc3ccc(C(=O)O)cc3)CCCC2)c1` [Example 17, 4-((2-(2,5-Dimethoxybenzyl)cyclohex-1-enecarboxamido)methyl)benzoic Acid], for which the Ki was 8 nM at EP4 [1] and 403 nM at EP2 [4]. On EP4 [3], this compound returned an EC50 of more than 10000 nM.

On to `COc1cc(C/C2=C(\C(=O)NCc3ccc(C(=O)O)cc3)CCCCCC2)cc(OC)c1` [Example 20, 4-((2-(3,5-Dimethoxybenzyl)cyclooct-1-enecarboxamido)methyl)benzoic Acid], for which the inhibition constant (Ki) was 0.2 nM at EP4 [1] and more than 10000 nM at EP2 [4]. In addition, the EC50 at EP4 [3] was more than 10000 nM.

As to `O=C(NCc1ccc(C(=O)O)cc1)C1=C(Cc2ccccc2Cl)CCCC1` [Example 24, 4-((2-(2-Chlorobenzyl)cyclohex-1-enecarboxamido)methyl)benzoic Acid], the figures for the Ki on EP4 [1] and at EP2 [4] were 4 nM and 83 nM, respectively. Further, on EP4 [3], the concentration giving a half-maximal response (EC50) is more than 10000 nM.

Take `COc1cccc(CC2=C(C(=O)NCc3ccc(C(=O)O)cc3)CCCC2)c1` [Example 27, 4-((2-(3-Methoxybenzyl)cyclohex-1-enecarboxamido)methyl)benzoic Acid]: the values for the Ki on EP4 [1] and at EP2 [4] were 2 nM and 138 nM, respectively. Further, the EC50 on EP4 [3] is more than 10000 nM.

As for `COc1ccccc1CC1=C(C(=O)NCc2ccc(C(=O)O)cc2)CCCC1` [Example 30, 4-((2-(2-Methoxybenzyl)cyclohex-1-enecarboxamido)methyl)benzoic Acid], the Ki at EP4 [1] worked out at 6 nM; at EP2 [4] it was 219 nM. At EP4 [3], this compound had an EC50 of more than 10000 nM.

On to `COc1ccc(CC2=C(C(=O)NCc3ccc(C(=O)O)cc3)CCCC2)cc1` [Example 33, 4-((2-(4-Methoxybenzyl)cyclohex-1-enecarboxamido)methyl)benzoic Acid], for which the values for the Ki on EP4 [1] and at EP2 [4] were 1 nM and 1140 nM, respectively. Also, the EC50 at EP4 [3] was more than 10000 nM.
